Structures are written as SMILES.

For the test, the target named is T1, human GnRH receptor (Homo sapiens, UniProt P30968).
T1 construct: line established by Prof; Thomas Gudermann; host or cells: CHO cells
T1 sequence (P30968 1-328): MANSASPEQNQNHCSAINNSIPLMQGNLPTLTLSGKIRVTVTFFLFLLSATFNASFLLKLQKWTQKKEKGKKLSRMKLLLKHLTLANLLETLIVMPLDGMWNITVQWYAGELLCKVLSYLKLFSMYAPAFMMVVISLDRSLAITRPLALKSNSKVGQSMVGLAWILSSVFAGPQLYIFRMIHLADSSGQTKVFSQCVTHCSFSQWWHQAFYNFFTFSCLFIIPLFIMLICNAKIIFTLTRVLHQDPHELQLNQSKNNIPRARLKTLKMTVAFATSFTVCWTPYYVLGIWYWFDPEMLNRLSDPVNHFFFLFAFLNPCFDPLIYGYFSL
Briefly: IP-One HTRF assay (inhibition of GnRH-R activation by buserelin). Type of test: cell-based. To be noted: IP-One HTRF assay with buserelin (at EC80) stimulation; CHO cells stably expressing human GnRH receptor; tested 20 µM to 1 nM; read-out: Potency IC50. The source says: By using homogenous time-resolved fluorescence resonance energy transfer (HTRF), the generation of one component of the GnRH-R signalling cascade can be measured. After stimulation of CHO cells stably expressing human GnRH receptor (established by Prof. Thomas Gudermann, currently University of Marburg, Germany; supplied as frozen cell aliquots by Cell Culture Services, Hamburg, Germany) with the EC80 of the GnRH agonist buserelin, Gq protein-coupled receptor signalling cascade is activated resulting in PLC-dependent cleavage of PIP2 to Inositol-1,4,5-triphosphate (IP3) and Diacylglycerol. The second messenger IP3 is degraded intracellularly to myo-inositol. Inhibition of the final degradation step from Inositol-1-phosphate (IP1) to myo-inositol by addition of lithium chloride leads to accumulation of IP1 in the cells. In cell lysates, IP1 can be detected via an antibody-based HTRF detection technology, where IP1 can displace the FRET acceptor IP1-d2 from binding by Terbium-labelled anti-IP1 antibody as donor resulting in a signal decrease. Compounds were tested for their capability of inhibiting GnRH-R activation by buserelin. For all IP-One HTRF® assays reagents of Cisbio Bioassays (IP-One Tb Jumbo kit, #62IPAPEJ; Cisbio Bioassays, Bagnols sur Cèze Cedex, France) were used.
For the assay, frozen cell aliquots were thawed and a cell suspension (3.33x10^6 cells/ml) containing IP1-d2 (dilution 1:40) was prepared and incubated at 37°C. After 1 h 3 µl of the cell suspension were added to 50 nl of a 100-fold concentrated solution of the test compound in DMSO pre-dispensed in a well of a white low-volume 384-well microtiter plate (Greiner Bio-One, Frickenhausen, Germany). The mixture was incubated for 20 min at 22°C to allow for pre-binding of the test compound to the GnRH-R. The receptor signaling cascade was stimulated by addition of 2 µl buserelin or LHRH (at EC50 or EC80) in stimulation buffer (10 mM Hepes pH 7.4, 1 mM CaCl2, 0.5 mM MgCl2, 4.2 mM KCI, 146 mM NaCl, 5.5 mM α-D-Glucose, 0.05% BSA, 125 mM LiCl (final assay concentration 50 mM) in aqua dest.). Plates were incubated for 1 h at 37°C and 5% carbon dioxide before the cells were lysed by adding 3 µl Terbium-labelled anti-IP1 antibody (1:40) diluted in Conjugate & Lysis buffer as supplied with the kit. After an incubation for 1 h at 22°C to enable complete cell lysis and antibody binding to free IP1 or IP1-d2, plates were measured in an HTRF reader, e.g. a RUBYstar, PHERAstar (both BMG Labtechnologies, Offenburg, Germany) or a Viewlux (PerkinElmer LAS, Rodgau-Jügesheim, Germany). From the fluorescence emissions at 665 nm (FRET) and at 620 nm (background signal of Terbium-antibody), the ratio (emission at 665 nm divided by emission at 620 nm) was calculated and the data were normalized (reaction without test compound = 0% inhibition; all other assay components except agonist = 100% inhibition). On the same microtiter plate, compounds were tested at 10 different concentrations in the range of 20 µM to 1 nM (20 µM, 6.7 µM, 2.2 µM, 0.74 µM, 0.25 µM, 82 nM, 27 nM, 9.2 nM, 3.1 nM and 1 nM; dilution series prepared before the assay at the level of the 100-fold conc. stock solutions by serial 1:3 dilutions in 100% DMSO) in duplicate values for each concentration. By using an in-house software, the IC50 values were calculated by a 4 parameter fit. The data reveal that the compounds of the present invention have antagonist activities on the human GnRH receptor. Within the meaning of the present invention the antagonist activity is reflected by the ability of a compound of the invention to antagonize human GnRH receptor stimulation in IP-One HTRF® assay at least three times the standard deviation over the background level.

For the compound `COc1cccc(S(=O)(=O)N2c3ccc(C(=O)NCc4ccccc4Cl)cc3C3(CCC(O)(C(F)(F)F)CC3)C2C2CC2)c1` (centres unmarked) [Example 43, N-(2-chlorobenzyl)-2'-cyclopropyl-4-hydroxy-1'-[(3-methoxyphenyl)su Ifonyl]-4-(trifluoromethyl)-1',2'-dihydrospiro[cyclohexane-1,3'-indole]-5'-carboxamide], the IC50 (commonly the midpoint of a concentration-inhibition curve) amounted to 621 nM.
The result for `O=C(Nc1cc[nH]n1)c1ccc2c(c1)C1(CCC(O)(C(F)(F)F)CC1)C(C1CC1)N2S(=O)(=O)c1ccc(F)cc1` (centres unmarked) [Example 52, 2'-cyclopropyl-1'-[(4-fluorophenyl)sulfonyl]-4-hydroxy-N-(1H-pyrazol-3-yl)-4-(trifluoromethyl)-1',2'-dihydrospiro[cyclohexane-1,3'-indole]-5'-carboxamide] reads 716 nM.
Regarding `COC(=O)c1cccc(NC(=O)c2ccc3c(c2)C2(CCC(O)(C(F)(F)F)CC2)C(C2CC2)N3S(=O)(=O)c2ccc(F)cc2)c1` (racemic) [Example 30, methyl 3-[({2'-cyclopropyl-1'-[(4-fluorophenyl)sulfonyl]-4-hydroxy-4-(trifluoromethyl)-1',2'-dihydrospiro[cyclohexane-1,3'-indol]-5'-yl}carbonyl)amino] benzoate], the half-inhibitory concentration (IC50) was found to be 227 nM.
Consider `O=C(NCc1ncccc1Cl)c1ccc2c(c1)C1(CCC(O)(C(F)(F)F)CC1)C(C1CC1)N2S(=O)(=O)c1ccc(F)cc1` (single isomer, unassigned) [Example 1-2], for which the IC50 was 135 nM.
With `COc1cccc(S(=O)(=O)N2c3ccc(C(=O)Nc4cccc(S(N)(=O)=O)c4)cc3C3(CCC(O)(C(F)(F)F)CC3)C2C2CC2)c1` (centres unmarked) [Example 37, 2'-cyclopropyl-4-hydroxy-1'-[(3-methoxyphenyl)su Ifonyl]-N-(3-sulfamoylphenyl)-4-(trifluoromethyl)-1',2'-dihydrospiro[cyclohexane-1,3'-indole]-5'-carboxamide], the IC50 was 2640 nM.
In the case of `COc1cccc(S(=O)(=O)N2c3ccc(C(=O)NCC4CCCCC4)cc3C3(CCC(O)(C(F)(F)F)CC3)C2C2CC2)c1` (centres unmarked) [Example 42, N-(cyclohexylmethyl) -2'-cyclopropyl-4-hydroxy-1'-[(3-methoxyphenyl)su Ifonyl]-4-(trifluoromethyl)-1',2'-dihydrospiro[cyclohexane-1,3'-indole]-5'-carboxamide], the IC50 was 1880 nM.
With `COc1cccc(S(=O)(=O)N2c3ccc(C(=O)NCc4ncccc4Cl)cc3C3(CCC(O)(C(F)(F)F)CC3)C2C2CC2)c1` (centres unmarked) [Example 45, N-[(3-chloropyridin-2-yl)methyl]-2'-cyclopropyl-4-hydroxy-1'-[(3-methoxyphenyl)su Ifonyl]-4-(trifluoromethyl)-1',2'-dihydrospiro[cyclohexane-1,3'-indole]-5'-carboxamide], the IC50 was determined as 756 nM.
As for `Cc1cccc(NC(=O)c2ccc3c(c2)C2(CCC(O)(C(F)(F)F)CC2)C(C2CC2)N3S(=O)(=O)c2ccc(F)cc2)c1` (centres unmarked) [Example 24, 2'-cyclopropyl-1'-[(4-fluorophenyl)sulfonyl]-4-hydroxy-N-(3-methylphenyl)-4-(trifluoromethyl)-1',2'-dihydrospiro[cyclohexane-1,3'-indole]-5'-carboxamide], the figure is 796 nM; as for `CC(C)=CCC1N(S(=O)(=O)c2ccc(F)cc2)c2ccc(C(=O)NCC3CCCCC3)cc2C12CCC(O)(C(F)(F)F)CC2` (centres unmarked) [Example 21, N-(cyclohexylmethyl) -1'-[(4-fluorophenyl)sulfonyl]-4-hydroxy-2'-(3-methylbut-2-en-1-yl)-4-(trifluoromethyl)-(trifluoromethyl)-1',2'-dihydrospiro[cyclohexane-1,3'-indole]-5'-carboxamide], 13200 nM.
Regarding `COc1cccc(S(=O)(=O)N2c3ccc(C(=O)Nc4cccc(S(C)(=O)=O)c4)cc3C3(CCC(O)(C(F)(F)F)CC3)C2C2CC2)c1` (centres unmarked) [Example 36, 2'-cyclopropyl-4-hydroxy-1'-[(3-methoxyphenyl)su Ifonyl]-N-[3-(methylsulfonyl)phenyl]-4-(trifluoromethyl)-1',2'-dihydrospiro[cyclohexane-1,3'-indole]-5'-carboxamide], the 50% inhibitory concentration (IC50) was 1270 nM.
For the compound `CC(C)=CCC1N(S(=O)(=O)c2ccc(F)cc2)c2ccc(C(=O)Nc3cncc(C(F)(F)F)c3)cc2C12CCC(O)(C(F)(F)F)CC2` (centres unmarked) [Example 19, 1'-[(4-fluorophenyl)sulfonyl]-4-hydroxy-2'-(3-methylbut-2-en-1-yl)-4-(trifluoromethyl)-N-[5-(trifluoromethyl)pyridin-3-yl]-1',2'-dihydrospiro[cyclohexane-1,3'-indole]-5'-carboxamide], the IC50 was determined as 9400 nM.
As for `O=C(NCc1ccccc1Cl)c1ccc2c(c1)C1(CCC(O)(C(F)(F)F)CC1)C(C1CC1)N2S(=O)(=O)c1ccc(F)cc1` (single isomer, unassigned) [Example 62-1], the figure is 101 nM; as for `O=C(NCc1ccccc1Cl)c1ccc2c(c1)C1(CCC(=NO)CC1)C(C1CC1)N2S(=O)(=O)c1ccc(F)cc1` (centres unmarked) [Example 5, N-(2-chlorobenzyl)-2'-cyclopropyl-1'-[(4-fluorophenyl)sulfonyl]-4-(hydroxyimino)-1',2'-dihydrospiro[cyclohexane-1,3'-indole]-5'-carboxamide], 65.7 nM.
As for `O=C(NC1(c2ccc(Cl)cc2)CC1)c1ccc2c(c1)C1(CCC(O)(C(F)(F)F)CC1)C(C1CC1)N2S(=O)(=O)c1ccc(F)cc1` (centres unmarked) [Example 51, N-[1-(4-chlorophenyl)cyclopropyl]-2'-cyclopropyl-1'-[(4-fluorophenyl)sulfonyl]-4-hydroxy-4-(trifluoromethyl)-1',2'-dihydrospiro[cyclohexane-1,3'-indole]-5'-carboxamide], the IC50 amounted to 551 nM.
The result for `CC(C)=CCC1N(S(=O)(=O)c2ccc(F)cc2)c2ccc(C(=O)Nc3ccon3)cc2C12CCC(O)(C(F)(F)F)CC2` (centres unmarked) [Example 17, 1'-[(4-fluorophenyl)sulfonyl]-4-hydroxy-2'-(3-methylbut-2-en-1-yl)-N-(1,2-oxazol-3-yl)-4-(trifluoromethyl)-1',2'-dihydrospiro[cyclohexane-1,3'-indole]-5'-carboxamide] reads 524 nM; that for `O=C(NCc1ccccc1Cl)c1ccc2c(c1)C1(CCC(F)(F)CC1)C(C1CC1)N2S(=O)(=O)c1ccc(F)cc1` (centres unmarked) [Example 6, N-(2-chlorobenzyl)-2'-cyclopropyl-4,4-difluoro-1'-[(4-fluorophenyl)sulfonyl]-1',2'-dihydrospiro[cyclohexane-1,3'-indole]-5'-carboxamide], 489 nM; that for `O=C(NCc1ncccc1C(F)(F)F)c1ccc2c(c1)C1(CCC(O)(C(F)(F)F)CC1)C(C1CC1)N2S(=O)(=O)c1cccc(C(=O)N2CCC2)c1` (centres unmarked) [Example 66, 1'-{[3-(azetidin-1-ylcarbonyl)phenyl]sulfonyl}-2'-cyclopropyl-4-hydroxy-4-(trifluoromethyl)-N-{[3-(trifluoromethyl)pyridin-2-yl]methyl}-1',2'-dihydrospiro[cyclohexane-1,3'-indole]-5'-carboxamide], 2180 nM.

Values taken from patent publication EP2881391A1, “Spiroindoline carbocycle derivatives and pharmaceutical compositions thereof” (Bayer Pharma Aktiengesellschaft, priority 2013, dated 2015).
